Laboratory results taken from publication PMC9947975, “Design, Synthesis, and Biological Evaluation Studies of Novel Naphthalene-Chalcone Hybrids As Antimicrobial, Anticandidal, Anticancer, and VEGFR-2 Inhibitors” (ACS Omega, 2023).
Values after ≈ are worked out from the molar mass of the structure shown.

Legend:
C. albicans (ATCC 24433) = assay: Anticandidal activity, MIC50 by resazurin fluorometric measurement; format: cell-based, Candida albicans; details: Candida albicans, ATCC24433, means of triplicate assays
Experimental: (§1) Obtained compounds (2a–2j) were evaluated for anticandidal activity against Candida albicans (C. albicans) (ATCC 24433), Candida krusei (C. krusei) (ATCC 6258), and Candida parapsilopsis (C. parapsilopsis) (ATCC 22019). MIC50 values were determined via fluorometric measurements, using resazurin solution.[13] Voriconazole and fluconazole were used as a standard drug in the anticandidal activity test. […] In general, it is seen that the 2-methoxyethyl substituent increases the anticandidal activity.
(§2) The antimicrobial activity of obtained derivatives (2a–2j) was screened on six bacterial and three fungal strains according to the standard procedure of CLSI[20] as described in the previous study.[21] The antibacterial activities of the obtained compounds were screened against B. subtilis (ATCC 6051), E. coli (ATCC 25922), E. faecalis (ATCC 2942), P. aeruginosa (ATCC 27853), S. aureus (ATCC 29213), and S. epidermidis (ATCC 12228). The obtained compounds were evaluated for anticandidal activity against C. albicans (ATCC 24433), C. krusei (ATCC 6258), and C. parapsilopsis (ATCC 22019). For antibacterial activity, azithromycin was utilized as a reference drug, whereas voriconazole and fluconazole were used for anticandidal activity.

C. krusei (ATCC 6258) = assay: as above; format: cell-based, Candida krusei; details: Pichia kudriavzevii, ATCC6258, means of triplicate assays
Experimental: as §1, §2

[1] = system: P. aeruginosa (ATCC 27853); assay: Antibacterial activity, MIC50 by resazurin fluorometric measurement; format: cell-based; details: Pseudomonas aeruginosa, ATCC27853; means of triplicate assays
Experimental: (§3) Obtained compounds (2a–2j) were evaluated for antibacterial activity against Escherichia coli (E. coli) (ATCC 25922), Pseudomonas aeruginosa (P. aeruginosa) (ATCC 27853), […] (E. faecalis) (ATCC 2942), Bacillus subtilis (B. subtilis) (ATCC 6051), Staphylococcus aureus (S. aureus) (ATCC 29213), and Staphylococcus epidermidis (S. epidermidis) (ATCC 12228). MIC50 values were determined via fluorometric measurements, using resazurin solution.[13] Azithromycin was used as a standard drug in the antibacterial activity test.
as §2

E. coli (ATCC 25922) = assay: as above; format: cell-based; details: Escherichia coli, ATCC25922; means of triplicate assays
Experimental: as §3, §2

B. subtilis (ATCC 6051) = assay: as above; format: cell-based; details: Bacillus subtilis, ATCC6051; means of triplicate assays
Experimental: as §3, §2

S. aureus (ATCC 29213) = assay: as above; format: cell-based, Staphylococcus aureus; details: Staphylococcus aureus, ATCC29213, means of triplicate assays
Experimental: as §3, §2

[2] = system: healthy mouse fibroblast cell (NIH3T3); assay: MTT cytotoxicity test on healthy cells; format: cell-based; details: 24-h treatment, means of quartet assays ± SEM
Experimental: (§4) The MTT test was performed using 3 different cell lines for calculated IC50 values of obtained compounds. […] For this purpose, the cytotoxic effects of the compounds against the healthy mouse fibroblast cell (NIH3T3) were investigated.
(§5) The 3-(4,5-dimethylthiazol-2-yl)-2,5-diphenyltetrazolium salt reduction method, or MTT assay, is used to measure the metabolic activity of live cells. […] Doxorubicin is used as a therapeutic drug. MTT assays were carried out as previously explained.[19]

[3] = system: C. parapsilopsis (ATCC 22019); assay: Anticandidal activity, MIC50 by resazurin fluorometric measurement; format: cell-based, Candida parapsilopsis; details: Candida, ATCC22019; means of triplicate assays
Experimental: as §1, §2

E. faecalis (ATCC 2942) = assay: Antibacterial activity, MIC50 by resazurin fluorometric measurement; format: cell-based, Enterococcus faecalis; details: for MIC50: Enterococcus faecalis, ATCC2942, means of triplicate assays
Experimental: as §3, §2

HepG2 cell line = assay: MTT cytotoxicity test; format: cell-based; details: Homo sapiens, 24-h treatment, means of quartet assays ± SEM
Experimental: as §4, §5

A549 cell line = assay: MTT cytotoxicity test; format: cell-based; details: Homo sapiens, A549, 24 h, MTT, 24-h treatment, means of quartet assays ± SEM
Experimental: as §4, §5

[4] = system: S. epidermidis (ATCC 12228); assay: Antibacterial activity, MIC50 by resazurin fluorometric measurement; format: cell-based, Staphylococcus epidermidis; details: Staphylococcus epidermidis, ATCC12228, means of triplicate assays; read-out: MIC50 S. epidermis
Experimental: as §3, §2

## COCCN1CCN(c2ccc(C(=O)C=Cc3cccc4ccccc34)cc2)CC1 [2e, 1-(4-(4-(2-Methoxyethyl)piperazin-1-yl)phenyl)-3-(naphthalen-1-yl)prop-2-en-1-one]
C. albicans (ATCC 24433)
  MIC50: 15.6 µg/mL (≈ 38.9 µM)
C. krusei (ATCC 6258)
  MIC50: 62.5 µg/mL (≈ 156 µM)
[1]
  MIC50: 62.5 µg/mL (≈ 156 µM)
E. coli (ATCC 25922)
  MIC50: > 100 µg/mL
B. subtilis (ATCC 6051)
  MIC50: > 100 µg/mL
S. aureus (ATCC 29213)
  MIC50: 62.5 µg/mL (≈ 156 µM)
other
  melting point: 136.2 to 137.8 °C
[2]
  IC50: 19.8 ± 0.81 µM
[3]
  MIC50: > 100 µg/mL
E. faecalis (ATCC 2942)
  MIC50: 31.3 µg/mL (≈ 78.1 µM)
HepG2 cell line
  IC50: 45.5 ± 2.5 µM
A549 cell line
  IC50: 20.6 ± 0.52 µM
[4]
  MIC50: 31.3 µg/mL (≈ 78.1 µM)

## C=CCN1CCN(c2ccc(C(=O)C=Cc3cccc4ccccc34)cc2)CC1 [2d, 1-(4-(4-Allylpiperazin-1-yl)phenyl)-3-(naphthalen-1-yl)prop-2-en-1-one]
C. albicans (ATCC 24433)
  MIC50: 31.3 µg/mL (≈ 81.8 µM)
C. krusei (ATCC 6258)
  MIC50: 62.5 µg/mL (≈ 163 µM)
[1]
  MIC50: 62.5 µg/mL (≈ 163 µM)
E. coli (ATCC 25922)
  MIC50: > 100 µg/mL
B. subtilis (ATCC 6051)
  MIC50: > 100 µg/mL
S. aureus (ATCC 29213)
  MIC50: > 100 µg/mL
other
  melting point: 120.2 to 121.9 °C
[2]
  IC50: 19.8 ± 1.31 µM
[3]
  MIC50: > 100 µg/mL
E. faecalis (ATCC 2942)
  MIC50: 15.6 µg/mL (≈ 40.8 µM)
E. faecalis (ATCC 2942); means of triplicate assays
  MIC50 E. faecalis: 15.7 µg/mL (≈ 41 µM)
HepG2 cell line
  IC50: 45.1 ± 8.12 µM
A549 cell line
  IC50: 71.1 ± 3.08 µM
[4]
  MIC50: 31.3 µg/mL (≈ 81.8 µM)

## CCN1CCN(c2ccc(C(=O)C=Cc3ccc4ccccc4c3)cc2)CC1 [2g, 1-(4-(4-Ethylpiperazin-1-yl)phenyl)-3-(naphthalen-2-yl)prop-2-en-1-one]
C. albicans (ATCC 24433)
  MIC50: 31.3 µg/mL (≈ 84.5 µM)
C. krusei (ATCC 6258)
  MIC50: > 100 µg/mL
[1]
  MIC50: > 100 µg/mL
E. coli (ATCC 25922)
  MIC50: > 100 µg/mL
B. subtilis (ATCC 6051)
  MIC50: > 100 µg/mL
S. aureus (ATCC 29213)
  MIC50: > 100 µg/mL
other
  melting point: 196.5 to 198 °C
[2]
  IC50: 52.4 ± 2.57 µM
[3]
  MIC50: > 100 µg/mL
E. faecalis (ATCC 2942)
  MIC50: 31.3 µg/mL (≈ 84.5 µM)
HepG2 cell line
  IC50: 35.6 ± 0.98 µM
A549 cell line
  IC50: 39.1 ± 1.24 µM
[4]
  MIC50: 62.5 µg/mL (≈ 169 µM)

## C=CCN1CCN(c2ccc(C(=O)C=Cc3ccc4ccccc4c3)cc2)CC1 [2i, 1-(4-(4-Allylpiperazin-1-yl)phenyl)-3-(naphthalen-2-yl)prop-2-en-1-one]
C. albicans (ATCC 24433)
  MIC50: 31.3 µg/mL (≈ 81.8 µM)
C. krusei (ATCC 6258)
  MIC50: > 100 µg/mL
[1]
  MIC50: > 100 µg/mL
E. coli (ATCC 25922)
  MIC50: > 100 µg/mL
B. subtilis (ATCC 6051)
  MIC50: > 100 µg/mL
S. aureus (ATCC 29213)
  MIC50: > 100 µg/mL
other
  melting point: 186.9 to 188.8 °C
[2]
  IC50: > 100 µM
[3]
  MIC50: > 100 µg/mL
E. faecalis (ATCC 2942)
  MIC50: 31.3 µg/mL (≈ 81.8 µM)
HepG2 cell line
  IC50: 97.1 ± 4.94 µM
A549 cell line
  IC50: 21.4 ± 2.56 µM
[4]
  MIC50: 31.3 µg/mL (≈ 81.8 µM)

## CC(C)N1CCN(c2ccc(C(=O)C=Cc3ccc4ccccc4c3)cc2)CC1 [2h, 1-(4-(4-Isopropylpiperazin-1-yl)phenyl)-3-(naphthalen-2-yl)prop-2-en-1-one]
C. albicans (ATCC 24433)
  MIC50: 31.3 µg/mL (≈ 81.4 µM)
C. krusei (ATCC 6258)
  MIC50: > 100 µg/mL
[1]
  MIC50: > 100 µg/mL
E. coli (ATCC 25922)
  MIC50: > 100 µg/mL
B. subtilis (ATCC 6051)
  MIC50: > 100 µg/mL
S. aureus (ATCC 29213)
  MIC50: > 100 µg/mL
other
  melting point: 213.3 to 214.9 °C
[2]
  IC50: 66.5 ± 0.98 µM
[3]
  MIC50: > 100 µg/mL
E. faecalis (ATCC 2942)
  MIC50: 31.3 µg/mL (≈ 81.4 µM)
HepG2 cell line
  IC50: 46.3 ± 1.25 µM
A549 cell line
  IC50: 41.3 ± 1.5 µM
[4]
  MIC50: 62.5 µg/mL (≈ 163 µM)

## CN1CCN(c2ccc(C(=O)C=Cc3cccc4ccccc34)cc2)CC1 [2a, 1-(4-(4-Methylpiperazin-1-yl)phenyl)-3-(naphthalen-1-yl)prop-2-en-1-one]
C. albicans (ATCC 24433)
  MIC50: 31.3 µg/mL (≈ 87.8 µM)
C. krusei (ATCC 6258)
  MIC50: 62.5 µg/mL (≈ 175 µM)
[1]
  MIC50: 62.5 µg/mL (≈ 175 µM)
E. coli (ATCC 25922)
  MIC50: > 100 µg/mL
B. subtilis (ATCC 6051)
  MIC50: > 100 µg/mL
S. aureus (ATCC 29213)
  MIC50: > 100 µg/mL
other
  melting point: 150.2 to 152.1 °C
[2]
  IC50: 61.9 ± 1.42 µM
[3]
  MIC50: 62.5 µg/mL (≈ 175 µM)
E. faecalis (ATCC 2942)
  MIC50: 31.3 µg/mL (≈ 87.8 µM)
HepG2 cell line
  IC50: > 100 µM
A549 cell line
  IC50: > 100 µM
[4]
  MIC50: 62.5 µg/mL (≈ 175 µM)
